{
  "source": "the kinase profiling compilation of Christmann-Franck et al. (2016)",
  "experiment_in_all_cases": "KINOMEscan competition binding",
  "key": {"LATS2 (human)": {"biological_target": "LATS2 (human) (UniProt Q9NRM7)", "conditions": "compound 10.0 µM"}, "CSNK1G1 (human)": {"biological_target": "CSNK1G1 (human) (UniProt Q9HCP0)", "conditions": "compound 10.0 µM"}, "FGFR1 (human)": {"biological_target": "FGFR1 (human) (UniProt P11362)", "conditions": "compound 10.0 µM"}, "CHEK1 (human)": {"biological_target": "CHEK1 (human) (UniProt O14757)", "sequence (O14757 whole entry, looked up)": "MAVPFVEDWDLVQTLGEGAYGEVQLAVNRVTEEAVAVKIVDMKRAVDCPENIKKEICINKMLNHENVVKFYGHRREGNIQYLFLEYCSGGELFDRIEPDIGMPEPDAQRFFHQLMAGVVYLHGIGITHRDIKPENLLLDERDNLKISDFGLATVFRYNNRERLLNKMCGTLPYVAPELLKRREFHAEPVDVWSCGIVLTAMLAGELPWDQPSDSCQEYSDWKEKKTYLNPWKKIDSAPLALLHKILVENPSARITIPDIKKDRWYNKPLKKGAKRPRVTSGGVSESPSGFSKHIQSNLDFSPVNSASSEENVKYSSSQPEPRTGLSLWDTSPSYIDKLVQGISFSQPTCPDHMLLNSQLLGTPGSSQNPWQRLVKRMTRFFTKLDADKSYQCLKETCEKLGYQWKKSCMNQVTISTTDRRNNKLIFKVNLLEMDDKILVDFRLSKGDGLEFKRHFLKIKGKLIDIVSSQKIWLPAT", "conditions": "compound 10.0 µM"}, "RPS6KA6 KD2 (human)": {"biological_target": "RPS6KA6 KD2 (human) (UniProt Q9UK32)", "sequence (Q9UK32 whole entry, looked up)": "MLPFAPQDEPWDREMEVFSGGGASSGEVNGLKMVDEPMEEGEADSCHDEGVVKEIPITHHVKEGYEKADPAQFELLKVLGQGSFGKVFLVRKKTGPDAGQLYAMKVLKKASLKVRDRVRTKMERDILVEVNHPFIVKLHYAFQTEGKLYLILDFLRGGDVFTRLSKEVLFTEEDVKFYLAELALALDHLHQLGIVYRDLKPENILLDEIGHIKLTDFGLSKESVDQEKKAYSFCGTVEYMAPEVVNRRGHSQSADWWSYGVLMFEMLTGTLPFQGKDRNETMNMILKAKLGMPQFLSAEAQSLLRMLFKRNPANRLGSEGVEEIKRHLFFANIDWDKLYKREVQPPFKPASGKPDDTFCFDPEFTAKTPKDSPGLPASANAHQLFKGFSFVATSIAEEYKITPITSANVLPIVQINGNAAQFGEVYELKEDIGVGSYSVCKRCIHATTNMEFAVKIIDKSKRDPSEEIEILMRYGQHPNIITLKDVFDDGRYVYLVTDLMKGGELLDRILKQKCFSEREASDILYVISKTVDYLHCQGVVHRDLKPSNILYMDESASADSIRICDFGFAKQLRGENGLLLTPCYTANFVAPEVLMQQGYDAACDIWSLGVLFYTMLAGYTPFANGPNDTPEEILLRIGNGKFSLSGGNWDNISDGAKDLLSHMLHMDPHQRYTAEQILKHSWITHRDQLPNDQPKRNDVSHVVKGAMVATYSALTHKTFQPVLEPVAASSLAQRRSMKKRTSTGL"}, "RPS6KA2 KD2 (human)": {"biological_target": "RPS6KA2 KD2 (human) (UniProt Q15349)", "sequence (Q15349 whole entry, looked up)": "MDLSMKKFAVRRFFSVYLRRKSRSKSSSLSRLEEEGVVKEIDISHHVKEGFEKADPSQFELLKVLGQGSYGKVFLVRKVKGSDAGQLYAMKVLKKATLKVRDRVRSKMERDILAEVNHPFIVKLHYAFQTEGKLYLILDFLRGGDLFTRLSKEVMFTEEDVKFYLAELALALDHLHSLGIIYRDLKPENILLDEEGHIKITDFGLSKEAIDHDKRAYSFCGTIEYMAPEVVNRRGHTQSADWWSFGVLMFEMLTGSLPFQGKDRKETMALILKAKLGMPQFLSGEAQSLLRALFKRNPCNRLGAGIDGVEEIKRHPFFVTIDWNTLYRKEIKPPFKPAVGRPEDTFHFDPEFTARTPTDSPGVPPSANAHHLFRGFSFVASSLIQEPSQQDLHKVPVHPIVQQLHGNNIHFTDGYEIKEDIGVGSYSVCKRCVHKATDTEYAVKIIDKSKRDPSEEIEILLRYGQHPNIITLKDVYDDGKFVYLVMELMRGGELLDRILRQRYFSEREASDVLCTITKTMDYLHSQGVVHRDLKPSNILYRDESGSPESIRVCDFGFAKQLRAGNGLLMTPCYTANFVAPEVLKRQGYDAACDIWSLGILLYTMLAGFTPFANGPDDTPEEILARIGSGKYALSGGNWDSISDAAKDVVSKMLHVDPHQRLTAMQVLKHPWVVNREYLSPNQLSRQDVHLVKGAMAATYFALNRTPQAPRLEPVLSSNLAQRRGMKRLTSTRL"}, "MAPK3 (human)": {"biological_target": "MAPK3 (human) (UniProt P27361)", "sequence (P27361 whole entry, looked up)": "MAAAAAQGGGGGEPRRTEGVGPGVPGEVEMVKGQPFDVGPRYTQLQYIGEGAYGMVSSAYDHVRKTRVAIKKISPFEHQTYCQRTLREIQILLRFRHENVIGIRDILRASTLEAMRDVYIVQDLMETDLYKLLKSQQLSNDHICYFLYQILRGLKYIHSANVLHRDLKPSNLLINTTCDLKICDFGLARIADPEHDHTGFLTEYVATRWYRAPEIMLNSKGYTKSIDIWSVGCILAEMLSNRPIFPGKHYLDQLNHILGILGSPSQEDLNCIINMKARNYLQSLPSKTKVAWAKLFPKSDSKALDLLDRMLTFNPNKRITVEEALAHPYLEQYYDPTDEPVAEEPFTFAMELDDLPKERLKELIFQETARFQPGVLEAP", "conditions": "compound 10.0 µM"}, "NTRK2 (human)": {"biological_target": "NTRK2 (human) (UniProt Q16620)", "conditions": "compound 10.0 µM"}, "[1]": {"system": "PIK3CA (human), P42336 [E542K]", "conditions": "compound 10.0 µM"}, "TAOK2 (human)": {"biological_target": "TAOK2 (human) (UniProt Q9UL54)", "conditions": "compound 10.0 µM"}, "SGK3 (human)": {"biological_target": "SGK3 (human) (UniProt Q96BR1)", "conditions": "compound 10.0 µM"}, "CAMKK1 (human)": {"biological_target": "CAMKK1 (human) (UniProt Q8N5S9)", "conditions": "compound 10.0 µM"}, "RPS6KA4 KD2 (human)": {"biological_target": "RPS6KA4 KD2 (human) (UniProt O75676)", "conditions": "compound 10.0 µM"}, "AAK1 (human)": {"biological_target": "AAK1 (human) (UniProt Q2M2I8)", "conditions": "compound 10.0 µM"}, "CSNK1G2 (human)": {"biological_target": "CSNK1G2 (human) (UniProt P78368)", "conditions": "compound 10.0 µM"}, "CDK3 (human)": {"biological_target": "CDK3 (human) (UniProt Q00526)", "conditions": "compound 10.0 µM"}, "MAP3K15 (human)": {"biological_target": "MAP3K15 (human) (UniProt Q6ZN16)", "conditions": "compound 10.0 µM"}, "PRKACB (human)": {"biological_target": "PRKACB (human) (UniProt P22694)", "conditions": "compound 10.0 µM"}, "PAK1 (human)": {"biological_target": "PAK1 (human) (UniProt Q13153)", "conditions": "compound 10.0 µM"}, "SRPK1 (human)": {"biological_target": "SRPK1 (human) (UniProt Q96SB4)", "sequence (Q96SB4 whole entry, looked up)": "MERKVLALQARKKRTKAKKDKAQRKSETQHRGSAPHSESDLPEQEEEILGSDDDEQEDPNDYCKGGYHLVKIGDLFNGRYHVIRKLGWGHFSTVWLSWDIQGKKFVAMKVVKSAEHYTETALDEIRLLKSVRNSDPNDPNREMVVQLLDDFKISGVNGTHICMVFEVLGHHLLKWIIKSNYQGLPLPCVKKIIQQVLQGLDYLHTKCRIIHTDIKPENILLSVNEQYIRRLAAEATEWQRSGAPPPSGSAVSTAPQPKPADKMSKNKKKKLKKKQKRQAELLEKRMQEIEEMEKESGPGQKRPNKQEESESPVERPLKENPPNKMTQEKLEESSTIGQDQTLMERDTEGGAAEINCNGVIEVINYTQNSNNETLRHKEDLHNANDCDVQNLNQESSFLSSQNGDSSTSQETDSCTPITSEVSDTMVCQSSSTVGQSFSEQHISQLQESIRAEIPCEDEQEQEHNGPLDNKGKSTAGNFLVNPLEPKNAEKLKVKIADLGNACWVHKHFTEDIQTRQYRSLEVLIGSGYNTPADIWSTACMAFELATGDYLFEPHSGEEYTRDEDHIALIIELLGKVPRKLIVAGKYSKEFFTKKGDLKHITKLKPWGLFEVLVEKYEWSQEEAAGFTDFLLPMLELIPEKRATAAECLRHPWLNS", "conditions": "compound 10.0 µM"}, "PRKCE (human)": {"biological_target": "PRKCE (human) (UniProt Q02156)", "conditions": "compound 10.0 µM"}, "FER (human)": {"biological_target": "FER (human) (UniProt P16591)", "conditions": "compound 10.0 µM"}, "PIP5K1C (human)": {"biological_target": "PIP5K1C (human) (UniProt O60331)", "conditions": "compound 10.0 µM"}, "NEK4 (human)": {"biological_target": "NEK4 (human) (UniProt P51957)", "conditions": "compound 10.0 µM"}, "[2]": {"system": "BRAF (human), P15056 [V600E]", "conditions": "compound 10.0 µM"}, "SRMS (human)": {"biological_target": "SRMS (human) (UniProt Q9H3Y6)", "conditions": "compound 10.0 µM"}, "WEE1 (human)": {"biological_target": "WEE1 (human) (UniProt P30291)", "sequence (P30291 whole entry, looked up)": "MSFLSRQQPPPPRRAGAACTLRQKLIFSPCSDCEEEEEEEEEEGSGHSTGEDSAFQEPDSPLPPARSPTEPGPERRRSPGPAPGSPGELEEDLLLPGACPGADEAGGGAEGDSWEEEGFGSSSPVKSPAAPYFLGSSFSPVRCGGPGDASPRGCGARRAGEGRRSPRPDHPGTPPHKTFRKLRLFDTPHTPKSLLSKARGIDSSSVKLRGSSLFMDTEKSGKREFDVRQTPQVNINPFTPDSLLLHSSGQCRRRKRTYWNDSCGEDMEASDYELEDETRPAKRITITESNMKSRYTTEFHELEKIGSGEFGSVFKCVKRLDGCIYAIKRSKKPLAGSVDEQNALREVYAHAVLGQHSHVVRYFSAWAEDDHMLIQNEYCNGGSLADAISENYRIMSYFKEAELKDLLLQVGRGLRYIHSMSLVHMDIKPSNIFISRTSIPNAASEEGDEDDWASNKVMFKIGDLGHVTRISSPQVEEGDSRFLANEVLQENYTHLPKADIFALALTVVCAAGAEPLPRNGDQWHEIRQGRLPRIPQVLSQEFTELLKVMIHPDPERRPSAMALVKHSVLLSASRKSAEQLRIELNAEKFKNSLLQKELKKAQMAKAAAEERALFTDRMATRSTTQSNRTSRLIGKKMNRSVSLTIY", "conditions": "compound 10.0 µM"}, "[3]": {"system": "KIT (human), P10721 [L576P]", "conditions": "compound 10.0 µM"}, "PTK2 (human)": {"biological_target": "PTK2 (human) (UniProt Q05397)", "conditions": "compound 10.0 µM"}, "INSRR (human)": {"biological_target": "INSRR (human) (UniProt P14616)", "conditions": "compound 10.0 µM"}, "LATS1 (human)": {"biological_target": "LATS1 (human) (UniProt O95835)", "conditions": "compound 10.0 µM"}, "MKNK1 (human)": {"biological_target": "MKNK1 (human) (UniProt Q9BUB5)", "conditions": "compound 10.0 µM"}, "[4]": {"system": "EIF2AK4 KD2 (human), Q9P2K8 [S808G]", "conditions": "compound 10.0 µM"}, "CLK3 (human)": {"biological_target": "CLK3 (human) (UniProt P49761)", "conditions": "compound 10.0 µM"}, "FLT3 (human)": {"biological_target": "FLT3 (human) (UniProt P36888)", "conditions": "compound 10.0 µM"}, "RIOK1 (human)": {"biological_target": "RIOK1 (human) (UniProt Q9BRS2)", "sequence (Q9BRS2 whole entry, looked up)": "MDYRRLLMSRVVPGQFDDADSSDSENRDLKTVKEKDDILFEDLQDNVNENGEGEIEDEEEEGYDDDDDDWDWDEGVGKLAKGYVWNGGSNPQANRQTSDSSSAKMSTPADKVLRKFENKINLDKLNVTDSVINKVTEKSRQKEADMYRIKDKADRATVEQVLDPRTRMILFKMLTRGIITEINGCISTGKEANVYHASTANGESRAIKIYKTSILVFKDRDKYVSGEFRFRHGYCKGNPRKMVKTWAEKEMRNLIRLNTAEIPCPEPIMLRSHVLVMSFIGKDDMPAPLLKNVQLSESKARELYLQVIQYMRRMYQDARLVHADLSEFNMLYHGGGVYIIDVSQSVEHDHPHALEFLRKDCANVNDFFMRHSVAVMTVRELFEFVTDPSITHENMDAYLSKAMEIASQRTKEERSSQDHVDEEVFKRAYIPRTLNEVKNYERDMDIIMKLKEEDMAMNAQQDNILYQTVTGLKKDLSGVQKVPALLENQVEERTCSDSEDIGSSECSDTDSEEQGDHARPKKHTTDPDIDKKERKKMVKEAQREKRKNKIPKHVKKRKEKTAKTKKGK", "conditions": "compound 10.0 µM"}, "DCLK2 (human)": {"biological_target": "DCLK2 (human) (UniProt Q8N568)", "sequence (Q8N568 whole entry, looked up)": "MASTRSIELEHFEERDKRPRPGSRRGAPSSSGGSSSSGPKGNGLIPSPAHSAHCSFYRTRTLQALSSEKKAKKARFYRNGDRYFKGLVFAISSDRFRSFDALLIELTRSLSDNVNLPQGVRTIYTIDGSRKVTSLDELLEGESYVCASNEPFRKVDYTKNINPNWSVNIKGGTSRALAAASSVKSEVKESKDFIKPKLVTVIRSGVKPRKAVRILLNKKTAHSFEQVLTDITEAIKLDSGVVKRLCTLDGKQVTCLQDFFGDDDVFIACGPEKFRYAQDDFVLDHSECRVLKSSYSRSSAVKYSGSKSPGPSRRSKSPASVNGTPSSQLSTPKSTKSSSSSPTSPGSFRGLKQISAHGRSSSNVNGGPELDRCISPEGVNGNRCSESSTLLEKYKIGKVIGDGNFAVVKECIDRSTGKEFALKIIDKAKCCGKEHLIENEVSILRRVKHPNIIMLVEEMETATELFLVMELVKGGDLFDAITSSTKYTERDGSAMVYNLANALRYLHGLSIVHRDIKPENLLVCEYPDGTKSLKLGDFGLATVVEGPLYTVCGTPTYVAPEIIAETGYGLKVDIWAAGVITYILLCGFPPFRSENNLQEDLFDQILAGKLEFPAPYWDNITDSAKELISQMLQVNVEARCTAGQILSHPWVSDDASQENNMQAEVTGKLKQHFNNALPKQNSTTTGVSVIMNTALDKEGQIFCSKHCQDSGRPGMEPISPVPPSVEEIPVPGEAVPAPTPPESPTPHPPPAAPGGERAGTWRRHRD"}, "PKN1 (human)": {"biological_target": "PKN1 (human) (UniProt Q16512)", "conditions": "compound 10.0 µM"}, "GRK1 (human)": {"biological_target": "GRK1 (human) (UniProt Q15835)", "conditions": "compound 10.0 µM"}, "INSR (human)": {"biological_target": "INSR (human) (UniProt P06213)", "conditions": "compound 10.0 µM"}},
  "data": [
    {"smiles": "COc1cc(C(=O)N2CCC(N3CCN(C)CC3)CC2)ccc1Nc1ncc2c(n1)N(C)c1ccccc1C(=O)N2C", "values": [
      {"measurement": "kinase still bound, per cent of control", "setting": "LATS2 (human)", "result": 95, "unit": "%"},
      {"measurement": "kinase still bound, per cent of control", "setting": "CSNK1G1 (human)", "result": 100, "unit": "%"},
      {"measurement": "kinase still bound, per cent of control", "setting": "FGFR1 (human)", "result": 86, "unit": "%"},
      {"measurement": "kinase still bound, per cent of control", "setting": "CHEK1 (human)", "result": 100, "unit": "%"},
      {"measurement": "Kd", "setting": "RPS6KA6 KD2 (human)", "result": 620, "unit": "nM"},
      {"measurement": "kinase still bound, per cent of control", "setting": "RPS6KA6 KD2 (human); compound 10.0 µM", "result": 2.2, "unit": "%"},
      {"measurement": "Kd", "setting": "RPS6KA2 KD2 (human)", "result": 1000, "unit": "nM"},
      {"measurement": "kinase still bound, per cent of control", "setting": "RPS6KA2 KD2 (human); compound 10.0 µM", "result": 7.5, "unit": "%"},
      {"measurement": "kinase still bound, per cent of control", "setting": "MAPK3 (human)", "result": 100, "unit": "%"},
      {"measurement": "kinase still bound, per cent of control", "setting": "NTRK2 (human)", "result": 100, "unit": "%"},
      {"measurement": "kinase still bound, per cent of control", "setting": "[1]", "result": 77, "unit": "%"},
      {"measurement": "kinase still bound, per cent of control", "setting": "TAOK2 (human)", "result": 65, "unit": "%"},
      {"measurement": "kinase still bound, per cent of control", "setting": "SGK3 (human)", "result": 95, "unit": "%"},
      {"measurement": "kinase still bound, per cent of control", "setting": "CAMKK1 (human)", "result": 73, "unit": "%"},
      {"measurement": "kinase still bound, per cent of control", "setting": "RPS6KA4 KD2 (human)", "result": 46, "unit": "%"},
      {"measurement": "kinase still bound, per cent of control", "setting": "AAK1 (human)", "result": 84, "unit": "%"},
      {"measurement": "kinase still bound, per cent of control", "setting": "CSNK1G2 (human)", "result": 100, "unit": "%"},
      {"measurement": "residual activity", "setting": "CDK3 (human)", "result": 100, "unit": "%"},
      {"measurement": "kinase still bound, per cent of control", "setting": "MAP3K15 (human)", "result": 69, "unit": "%"},
      {"measurement": "residual activity", "setting": "PRKACB (human)", "result": 100, "unit": "%"},
      {"measurement": "kinase still bound, per cent of control", "setting": "PAK1 (human)", "result": 95, "unit": "%"},
      {"measurement": "kinase still bound, per cent of control", "setting": "SRPK1 (human)", "result": 94, "unit": "%"},
      {"measurement": "kinase still bound, per cent of control", "setting": "PRKCE (human)", "result": 100, "unit": "%"},
      {"measurement": "kinase still bound, per cent of control", "setting": "FER (human)", "result": 51, "unit": "%"},
      {"measurement": "kinase still bound, per cent of control", "setting": "PIP5K1C (human)", "result": 96, "unit": "%"},
      {"measurement": "kinase still bound, per cent of control", "setting": "NEK4 (human)", "result": 95, "unit": "%"},
      {"measurement": "kinase still bound, per cent of control", "setting": "[2]", "result": 100, "unit": "%"},
      {"measurement": "kinase still bound, per cent of control", "setting": "SRMS (human)", "result": 77, "unit": "%"},
      {"measurement": "kinase still bound, per cent of control", "setting": "WEE1 (human)", "result": 100, "unit": "%"},
      {"measurement": "kinase still bound, per cent of control", "setting": "[3]", "result": 100, "unit": "%"},
      {"measurement": "kinase still bound, per cent of control", "setting": "PTK2 (human)", "result": 34, "unit": "%"},
      {"measurement": "kinase still bound, per cent of control", "setting": "INSRR (human)", "result": 97, "unit": "%"},
      {"measurement": "kinase still bound, per cent of control", "setting": "LATS1 (human)", "result": 100, "unit": "%"},
      {"measurement": "kinase still bound, per cent of control", "setting": "MKNK1 (human)", "result": 50, "unit": "%"},
      {"measurement": "kinase still bound, per cent of control", "setting": "[4]", "result": 95, "unit": "%"},
      {"measurement": "kinase still bound, per cent of control", "setting": "CLK3 (human)", "result": 95, "unit": "%"},
      {"measurement": "kinase still bound, per cent of control", "setting": "FLT3 (human)", "result": 100, "unit": "%"},
      {"measurement": "kinase still bound, per cent of control", "setting": "RIOK1 (human)", "result": 100, "unit": "%"},
      {"measurement": "Kd", "setting": "DCLK2 (human)", "result": 16, "unit": "nM"},
      {"measurement": "kinase still bound, per cent of control", "setting": "DCLK2 (human); compound 10.0 µM", "result": 0.45, "unit": "%"},
      {"measurement": "kinase still bound, per cent of control", "setting": "PKN1 (human)", "result": 100, "unit": "%"},
      {"measurement": "kinase still bound, per cent of control", "setting": "GRK1 (human)", "result": 91, "unit": "%"},
      {"measurement": "kinase still bound, per cent of control", "setting": "INSR (human)", "result": 84, "unit": "%"}
    ]}
  ]
}
